Results reported in ChEMBL document CHEMBL1137205, “Rational approaches to discovery of orally active and brain-penetrable quinazolinone inhibitors of poly(ADP-ribose)polymerase” (J Med Chem, 2004).

How the values were obtained:
[1] = biological target: Poly [ADP-ribose] polymerase 1 (Homo sapiens, UniProt P09874); assay: In vitro inhibitory concentration against human recombinant Poly (ADP-ribose) polymerase 1
[2] = Concentration in plasma was measured at 0.5 hrs in mice following po administration of 32 mg/kg; assay type: ADME, organism-based; design: dose 32 mg/kg, route oral; details: mouse
[3] = Concentration in brain tissue was measured at 2 hrs in mice following po administration of 32 mg/kg; assay type: ADME, organism-based; design: dose 32 mg/kg, route oral; details: mouse
[4] = Concentration in brain tissue was measured at 0.5 hrs in mice following po administration of 32 mg/kg; assay type: ADME, organism-based; design: dose 32 mg/kg, route oral; details: mouse
[5] = Concentration in plasma was measured at 2 hrs in mice following po administration of 32 mg/kg; assay type: ADME, organism-based; design: dose 32 mg/kg, route oral; details: mouse
[6] = Cmax value in mouse after po administration of 10 mg/kg; assay type: ADME, organism-based; design: dose 10 mg/kg, route oral; details: in vivo
[7] = Clearance of compound in rat after iv administration of 10 mg/kg; assay type: ADME, organism-based; design: dose 10 mg/kg, route intravenous; details: in vivo
[8] = Clearance of compound in dog after iv administration of 1.0 mg/kg; assay type: ADME, organism-based, Canis lupus familiaris; design: dose 1 mg/kg, route intravenous; details: in vivo
[9] = Clearance in dog liver microsomes when incubated at 37 degree Celsius in the presence of NADPH-generating system
[10] = Clearance in rat liver microsomes when incubated at 37 degree Celsius in the presence of NADPH-generating system
[11] = Bioavailability in rat after iv administration of 10 mg/kg; assay type: ADME, organism-based; details: in vivo, read-out: Bioavailabiility
[12] = Bioavailability in dog after iv administration of 1.0 mg/kg; assay type: ADME, organism-based, Canis lupus familiaris; details: in vivo, read-out: Bioavailabiility
[13] = Cmax value in rat after po administration of 10 mg/kg; assay type: ADME, organism-based; design: dose 10 mg/kg, route oral; details: in vivo
[14] = Cmax value in dog after po administration of 1.0 mg/kg; assay type: ADME, organism-based, Canis lupus familiaris; design: dose 1 mg/kg, route oral; details: in vivo
[15] = Half-life in rat after iv administration of 10 mg/kg; assay type: ADME, organism-based; design: dose 10 mg/kg, route intravenous; details: in vivo
[16] = Half-life in dog after iv administration of 1.0 mg/kg; assay type: ADME, organism-based, Canis lupus familiaris; design: dose 1 mg/kg, route intravenous; details: in vivo
[17] = Clearance in human liver microsomes when incubated at 37 degree Celsius in the presence of NADPH-generating system
[18] = Clearance in mouse liver microsomes when incubated at 37 degree Celsius in the presence of NADPH-generating system
[19] = AUC value in rat after po administration of 10 mg/kg; assay type: ADME, organism-based, Plasma; design: dose 10 mg/kg, route oral; details: in vivo
[20] = AUC value in dog after po administration of 1.0 mg/kg; assay type: ADME, organism-based, Canis lupus familiaris, Plasma; design: dose 1 mg/kg, route oral; details: in vivo
[21] = Ratio of brain tissue concentration to that of plasma concentration; assay type: ADME; details: mouse; for Kp: brain / plasma
[22] = Concentration in plasma was measured at 0.5 hrs in mice following ip administration of 32 mg/kg; assay type: ADME, organism-based; design: dose 32 mg/kg, route intraperitoneal; details: mouse
[23] = Concentration in brain tissue was measured at 0.5 hrs in mice following ip administration of 32 mg/kg; assay type: ADME, organism-based; design: dose 32 mg/kg, route intraperitoneal; details: mouse

Chain of Poly [ADP-ribose] polymerase 1 (P09874 whole entry): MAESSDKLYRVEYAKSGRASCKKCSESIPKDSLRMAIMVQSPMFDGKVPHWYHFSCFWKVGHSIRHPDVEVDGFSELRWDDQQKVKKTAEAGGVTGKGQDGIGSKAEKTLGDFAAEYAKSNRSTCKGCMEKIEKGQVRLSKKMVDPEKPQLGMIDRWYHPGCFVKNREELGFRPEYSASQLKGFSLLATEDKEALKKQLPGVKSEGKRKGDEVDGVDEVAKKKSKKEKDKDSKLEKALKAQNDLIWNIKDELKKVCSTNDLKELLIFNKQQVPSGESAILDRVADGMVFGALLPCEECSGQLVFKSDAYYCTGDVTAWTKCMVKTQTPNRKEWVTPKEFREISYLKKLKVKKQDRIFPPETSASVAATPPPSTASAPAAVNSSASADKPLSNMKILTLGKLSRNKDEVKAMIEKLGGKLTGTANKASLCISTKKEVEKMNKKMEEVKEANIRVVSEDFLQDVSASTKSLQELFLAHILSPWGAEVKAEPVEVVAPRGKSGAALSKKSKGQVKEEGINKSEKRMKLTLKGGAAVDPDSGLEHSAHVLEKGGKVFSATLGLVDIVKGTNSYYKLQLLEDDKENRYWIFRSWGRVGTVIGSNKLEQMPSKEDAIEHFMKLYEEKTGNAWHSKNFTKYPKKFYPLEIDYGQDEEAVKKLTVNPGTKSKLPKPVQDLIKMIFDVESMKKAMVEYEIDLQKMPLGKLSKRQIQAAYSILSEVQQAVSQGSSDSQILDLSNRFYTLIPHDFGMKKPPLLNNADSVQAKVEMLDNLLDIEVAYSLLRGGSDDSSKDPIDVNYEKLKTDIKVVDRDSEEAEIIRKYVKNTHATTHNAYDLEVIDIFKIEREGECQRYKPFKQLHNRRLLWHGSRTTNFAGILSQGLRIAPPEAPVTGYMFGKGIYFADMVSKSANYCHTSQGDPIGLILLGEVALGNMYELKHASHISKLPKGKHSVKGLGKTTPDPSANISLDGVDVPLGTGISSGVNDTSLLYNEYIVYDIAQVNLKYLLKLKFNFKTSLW

Row | Structure (SMILES) | IC50 [1] | concentration at 0.5 h [2] | concentration at 2 h [3] | concentration at 0.5 h [4] | concentration at 2 h [5] | further results
1 | O=c1[nH]c(CCCN2CCC(c3ccccc3)CC2)nc2ccccc12 | 46 nM | 250 ng/mL | 100 ng/g | 370 ng/g |  | 
2 | O=c1[nH]c(CCCN2CC=C(c3ccc(F)cc3)CC2)nc2ccccc12 | 8.9 nM | 6830 ng/mL | 1160 ng/g | 3540 ng/g | 3480 ng/mL | 
3 | O=c1[nH]c(CCCN2CC=C(c3ccc(Cl)cc3)CC2)nc2ccccc12 | 23 nM | 12100 ng/mL | 9410 ng/g | 23900 ng/g | 2780 ng/mL | 
4 | O=c1[nH]c(CCCN2CC=C(c3ccccc3)CC2)nc2c(Cl)cccc12 | 26 nM | 1280 ng/mL | 8430 ng/g | 7990 ng/g | 1200 ng/mL | 
5 | O=c1[nH]c(CCCN2CC=C(c3ccc(F)cc3)CC2)nc2c(Cl)cccc12 | 13 nM | 1000 ng/mL | 2100 ng/g | 5600 ng/g | 500 ng/mL | Cmax [6]: 300 ng/mL; clearance [7]: 13.5 mL/min/kg; clearance [8]: 4.8 mL/min/kg; CLint scaled [9]: 141 mL/min/kg; CLint scaled [10]: 1240 mL/min/kg; bioavailability [11]: 20%; bioavailability [12]: 70%; Cmax [13]: 1330 ng/mL; Cmax [14]: 280 ng/mL; half-life [15]: 1.4 h; half-life [16]: 6 h; CLint scaled [17]: 156 mL/min/kg; CLint scaled [18]: 2250 mL/min/kg; AUC [19]: 2.52 µg/h/mL; AUC [20]: 3.16 µg/h/mL; Kp [21]: 5.6; Ratio ([21]; plasma): 4.2
6 | COc1cccc2c(=O)[nH]c(CCCN3CC=C(c4ccccc4)CC3)nc12 | 26 nM | 240 ng/mL |  | 1150 ng/g |  | 
7 | O=c1[nH]c(CCCN2CC=C(c3ccc(C(F)(F)F)cc3)CC2)nc2ccccc12 | 25 nM | 6800 ng/mL | 19500 ng/g | 23400 ng/g | 3270 ng/mL | 
8 | O=c1[nH]c(=O)n(CCCCN2CC=C(c3ccccc3)CC2)c2cccc(F)c12 |  |  |  |  |  | concentration at 0.5 h [22]: 700 ng/mL; concentration at 0.5 h [23]: 600 ng/g; Kp [21]: 0.86
9 | Oc1nc(CCCN2CC=C(c3ccc(-c4ccccc4)cc3)CC2)nc2ccccc12 | 34 nM |  |  |  |  | 
10 | Cc1nc2cccc(Cl)c2c(=O)[nH]1 |  |  |  |  |  | concentration at 0.5 h [22]: 6700 ng/mL; concentration at 0.5 h [23]: 5500 ng/g; Kp [21]: 0.82
11 | O=c1[nH]c(CCCN2CC=C(c3ccc(O)cc3)CC2)nc2ccccc12 | 12 nM |  |  |  |  | 
12 | Oc1nc(CCCN2CCc3c([nH]c4ccccc34)C2)nc2ccccc12 | 74 nM | 77200 ng/mL | 150 ng/g | 580 ng/g | 9510 ng/mL | 
13 | COc1ccc(C2=CCN(CCCc3nc(O)c4ccccc4n3)CC2)cc1 | 8.3 nM | 6050 ng/mL | 3750 ng/g | 5610 ng/g | 1670 ng/mL | 
14 | Oc1nc(CCCN2CC=C(c3ccccc3)CC2)nc2cccc(F)c12 |  | 370 ng/mL | 220 ng/g | 1620 ng/g | 140 ng/mL | 
15 | O=c1[nH]c(CCCN2CC=C(c3ccccc3)CC2)nc2ccccc12 | 16 nM | 680 ng/mL | 370 ng/g | 1900 ng/g | 150 ng/mL | 
